Reference: ChEMBL document CHEMBL1136523, “A novel estrogen receptor ligand template” (Bioorg Med Chem Lett, 2003)

Columns and labels:
Estrogen receptor beta = Estrogen receptor beta (Homo sapiens, UniProt Q92731)
Description: In vitro binding affinity for estrogen receptor beta

Estrogen receptor [1] = target: Estrogen receptor (Homo sapiens, UniProt Q92731+P03372); assay: Percent agonistic activity for estrogen-induced pS2 expression in MCF-7 cells; type: functional, cell-based; details: mcf7
Estrogen receptor [2] = target: T1, Estrogen receptor (Homo sapiens, UniProt P03372); assay: In vitro binding affinity for estrogen receptor alpha
T1 sequence (P03372 whole entry): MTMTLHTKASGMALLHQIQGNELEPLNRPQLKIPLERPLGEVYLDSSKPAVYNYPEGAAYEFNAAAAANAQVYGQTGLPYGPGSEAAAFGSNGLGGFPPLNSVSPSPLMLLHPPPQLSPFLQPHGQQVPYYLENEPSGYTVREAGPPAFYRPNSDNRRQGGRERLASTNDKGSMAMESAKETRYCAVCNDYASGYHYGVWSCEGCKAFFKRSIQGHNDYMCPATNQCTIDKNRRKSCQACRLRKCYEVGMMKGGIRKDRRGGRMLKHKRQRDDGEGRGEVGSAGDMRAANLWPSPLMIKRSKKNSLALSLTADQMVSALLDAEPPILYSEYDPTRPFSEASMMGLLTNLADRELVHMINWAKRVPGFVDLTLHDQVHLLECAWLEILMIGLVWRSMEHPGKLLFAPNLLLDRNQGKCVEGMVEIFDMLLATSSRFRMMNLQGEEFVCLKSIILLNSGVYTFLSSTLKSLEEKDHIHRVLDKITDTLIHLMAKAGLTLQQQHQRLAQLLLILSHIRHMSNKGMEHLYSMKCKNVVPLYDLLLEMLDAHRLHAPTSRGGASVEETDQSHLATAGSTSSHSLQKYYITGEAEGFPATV

Estrogen receptor beta, sequence (Q92731 whole entry): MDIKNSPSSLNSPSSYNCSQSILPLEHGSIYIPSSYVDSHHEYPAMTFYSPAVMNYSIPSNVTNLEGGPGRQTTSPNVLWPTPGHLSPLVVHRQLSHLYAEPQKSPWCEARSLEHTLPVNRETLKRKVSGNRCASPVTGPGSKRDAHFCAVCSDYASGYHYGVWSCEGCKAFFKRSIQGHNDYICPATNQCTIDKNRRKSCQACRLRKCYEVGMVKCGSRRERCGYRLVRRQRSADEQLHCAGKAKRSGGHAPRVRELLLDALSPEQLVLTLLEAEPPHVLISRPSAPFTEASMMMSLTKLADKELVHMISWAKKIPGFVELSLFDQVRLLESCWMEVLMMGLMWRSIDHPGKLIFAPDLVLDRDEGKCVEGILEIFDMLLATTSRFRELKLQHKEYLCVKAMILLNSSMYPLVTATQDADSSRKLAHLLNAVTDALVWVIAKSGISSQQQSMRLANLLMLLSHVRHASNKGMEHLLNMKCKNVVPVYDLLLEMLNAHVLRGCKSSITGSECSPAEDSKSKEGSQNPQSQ

IC50 (Estrogen receptor beta): 75 nM
EC50 (Estrogen receptor [1]): < 10 nM
IC50 (Estrogen receptor [2]): 550 nM
SMILES: OC[C@@]12CC=C[C@@H](C1)[C@H](c1ccc(O)cc1)CC2
